Assay results published in US6410515B1, “Peptide, a method for its preparation and a pharmaceutical composition containing the peptide” (Immunotech Developments Inc., priority 1995, dated 2002).
Marks after values point to notes of the source that are not given here.

Assays:
[1] = tested on: lethally irradiated recipient mice; test: State of hemopoiesis after transplantation of allogenic bone marrow; assay type: in vivo; settings: for Caryocytes in blood: control 1,7 + 0,3; for Lymphocytes, %: control 3
Experimental: In a series of experiments, bone marrow cells (6 million) of one of the parents were transplanted to lethally irradiated recipient mice which were hybrids of the first generation. […] Generally, weight loss is observed and there is a small percent of deaths during the 42-day study.
A day after the bone marrow transplantation, test recipients began to receive therapy. Three schemes of therapy were used: (1) iDD, 10 μg/kg, ip, for 5 days running, with 2-day intervals, for 6 weeks (K+iDD); (2) before transplantation, bone marrow transplants were treated with iDD in vitro for 1 hour at 37° C., 0.2 jig per 2 x 10^6 cells, without […] treatment with the preparation (iDD); and (3) bone marrow was pretreated in vitro as described in scheme 2, followed by iDD therapy as in scheme 1 (iDD+iDD). Control subjects were mice that were transplanted with the bone marrow without any further therapy. These animals received ip injections of the solvent according to the same schedule.

[2] = tested on: Splenic cells of the mice; test: Concavalin A-stimulated proliferation of splenic cells (3H-thymidine); assay type: cell-based, Balb/c mice; settings: 48 h, control 61467
Experimental: The biological effect of the D-iGlu-D-Trp (iDD) was studied in Balb/c mice. […] The preparation under study was added at the beginning of the culture. Concavalin A was used as a mitogen, in a final concentration of 2 μg per well. The plates were incubated at 37° C. and in 5% CO2 for 48 h. 3H-thymidine was incorporated into the cells in the amount of […], 24 h prior to the end of the culture. Proliferation of the cells was measured with the use of a scintillation c-counter and expressed in counts per minute (CPM).

[3] = tested on: CFU-S in S-phase; test: Thymidine suicide test on boosted (4 Gy) bone marrow; assay type: in vivo, mice; settings: for Average colony count: 4 Gy, per 10^5 injected bone marrow cells; for % CFU-S in S-phase: irradiation alone 55,0, intact control 10,5
Experimental: The mechanism of the inhibiting effect of the peptide on hemopoiesis was studied using the “thymidine suicide” test. The method provides an accurate measurement of the percentage of dividing cells (in the S-phase of the cell cycle). A bone marrow suspension is incubated with 3H-thymidine, which kills cells in the S-phase.
The first series of experiments investigated the effect of the peptide on CFU-S proliferation. Such an assay can not be done with intact marrow since the progenitors proliferate very poorly (0 to 15% in a cycle) in intact bone marrow. Consequently, as a source of CFU-S, “boosted” bone marrow was used containing at least 40% proliferating cells. “Boosted” bone marrow was obtained from mouse bone marrow on the 7th day following radiation with a dose of 4 Gy. Donor mice were irradiated with this dose and 5 or 6 days later they received iDD. On day 7 following the irradiation, the bone marrow was examined for the percentage of dividing cells, i.e. the iDD treatment lasted 1 or 2 days. According to the results obtained, when injected two days before the extraction of bone marrow, the peptide inhibited the proliferation so that the percentage of dividing cells was even lower than in intact subjects. When the peptide was injected one day before bone marrow was taken, no effect was observed (Table 7).
Table 7 illustrates the effect of the peptide on cell proliferation in irradiated (4 Gy) bone marrow.

[4] = iDD + iDD: in vitro pretreatment and iDD therapy
[5] = iDD: transplant treated in vitro only

Question: For H-D-iGlu-D-Trp-OH [iDD], which Caryocytes in blood ([1]; K+ iDD: iDD 10 μg/kg ip, 6 weeks, intact 5,4 + 1,0) is on record?
Answer: 3,8 + 0,3 thousand/μl

Question: And the “Lymphocytes, %” value ([1]; K+ iDD: iDD 10 μg/kg ip, 6 weeks, intact 43)?
Answer: 19%

Question: What about the Caryocytes in blood [1, 4] of the same substance?
Answer: 5,2 + 0,6* thousand/μl

Question: What about the “Lymphocytes, %” value [1, 4] of the same substance?
Answer: 40* %

Question: And the Caryocytes in blood [1, 5]?
Answer: 4,2 + 0,3 thousand/μl

Question: And the “Lymphocytes, %” value [1, 5]?
Answer: 21,5%

Question: And the “Increase of lymphocyte count versus control” value ([1]; schemes K+iDD and iDD)?
Answer: 6-7 times

Question: And the “CPMI (proliferation, 3H-thymidine)” value ([2]; Preparation dose 1 μcg/ml)?
Answer: 68594 CPM

Question: What about the “CPMI (proliferation, 3H-thymidine)” value ([2]; Preparation dose 5 μcg/ml) of the same substance?
Answer: 63428 CPM

Question: And the “CPMI (proliferation, 3H-thymidine)” value ([2]; Preparation dose 10 μcg/ml)?
Answer: 20043 CPM

Question: What about the “CPMI (proliferation, 3H-thymidine)” value ([2]; Preparation dose 20 μcg/ml) of the same substance?
Answer: 13222 CPM

Question: And the Average colony count ([3]; iDD 1 day before marrow extraction, + 3H)?
Answer: 5,8 ± 0,5

Question: What about the Average colony count ([3]; iDD 1 day before marrow extraction, without 3H) of the same substance?
Answer: 8,3 ± 0,4

Question: What about the “% CFU-S in S-phase” value ([3]; iDD 1 day) of the same substance?
Answer: 50,6%

Question: And the Average colony count ([3]; iDD 2 days before marrow extraction, + 3H)?
Answer: 2,8 ± 0,2

Question: What about the Average colony count ([3]; iDD 2 days before marrow extraction, without 3H) of the same substance?
Answer: 3,5 ± 0,2

Question: And the “% CFU-S in S-phase” value ([3]; iDD 2 days)?
Answer: 5,8%
